Assays:
[1] = tested on: MCF7 (breast) carcinoma cell line; assay: MTT anti-proliferative assay, MCF7; format: cell-based; details: Homo sapiens, MCF7, 72 h; read-out: IC50, μM ± SD, MCF7
[2] = tested on: HCT116 (colon) carcinoma cell line; assay: MTT anti-proliferative assay, HCT116; format: cell-based; details: Homo sapiens, HCT-116, 72 h; read-out: IC50, μM ± SD, HCT116
[3] = tested on: RPE1 (normal human immortalized retinal pigment epithelial cell line); assay: MTT assay on normal cells, RPE1; format: cell-based; details: RPE-1, RPE1 normal (non-cancer) cell line, read-out: IC50, μM ± SD, RPE1
Experimental: In-vitro antitumor screening
The targeted piperidinecarboxamides 24‒51 were screened for their antitumor properties against HCT116 (colon), MCF7 (breast) and A431 (squamous skin) carcinoma cell lines by the standard mitochondrial dependent reduction of yellow MTT [3-(4,5-dimethylthiazol-2-yl)-2,5-diphenyl-tetrazolium bromide] to purple formazan technique.11 Cells were suspended in McCoy’s 5A medium for HCT116, DMEM for MCF-7 and A431 in addition to 1% antibiotic–antimycotic mixture (10000 μg ml-1 potassium penicillin, 10000 μg ml-1 streptomycin sulfate and 25 μg ml-1 amphotericin B), 10% fetal bovine serum and 1% L-glutamine at 37 °C, under 5% CO2 and 95% humidity. Cells were seeded at concentration of 30000 cells per well in fresh complete growth medium in 96-well tissue culture microtiter plates for 24 h. Media was aspirated, fresh complete medium was added and cells were incubated with different concentrations of the tested compound to give a final concentration of [50, 25, 12.5 and 6.25 μM ([…] and 0.375 μM for the high potent analogues)]. 0.5% DMSO was used as negative control and 5-fluorouracil was used as positive control (standard reference). Triplicate wells were prepared for each individual dose. After 72 h of incubation, medium was aspirated, 40 μl MTT salt (2.5 mg ml-1) were added to each well and incubated for further 4 h at 37 °C.
To stop the reaction and dissolve the formed crystals, 150 μl of 10% sodium dodecyl sulfate (SDS) in deionized water were added to each well and incubated overnight at 37 °C. The absorbance was then measured at 570 nm and a reference wavelength of 595 nm.
Data were collected as mean values for experiments performed in triplicates for each individual dose which had been measured by MTT assay. Control experiments did […]
survival was calculated according to equ. (1).
Surviving fraction = … . (1)
The synthesized compounds 24‒51 were also tested against RPE1 (normal human immortalized retinal pigment epithelial cell line) cell to determine the toxicity/selectivity […]
towards normal cells relative to the carcinoma cell lines utilized. The IC50 (concentration […]
was determined using Graph-Pad PRISM version-5 software. Statistical calculations for determination of the mean and standard error values were determined by SPSS 16 […]
8:1 which is the ratio between the data points and the number of QSAR descriptor).
Human DNA topoisomerase IIα inhibitory properties

[4] = tested on: A431 (squamous skin) carcinoma cell line; assay: MTT anti-proliferative assay, A431; format: cell-based; details: Homo sapiens, A-431, 72 h; read-out: IC50, μM ± SD, A431
[5] = biological target: T1, human DNA topoisomerase IIα (Homo sapiens, UniProt P11388); assay: Human DNA topoisomerase IIα activity assay (TopoGEN kit, plasmid based); format: biochemical
T1 construct: purchased TopoGEN, Inc
T1 sequence (P11388 whole entry): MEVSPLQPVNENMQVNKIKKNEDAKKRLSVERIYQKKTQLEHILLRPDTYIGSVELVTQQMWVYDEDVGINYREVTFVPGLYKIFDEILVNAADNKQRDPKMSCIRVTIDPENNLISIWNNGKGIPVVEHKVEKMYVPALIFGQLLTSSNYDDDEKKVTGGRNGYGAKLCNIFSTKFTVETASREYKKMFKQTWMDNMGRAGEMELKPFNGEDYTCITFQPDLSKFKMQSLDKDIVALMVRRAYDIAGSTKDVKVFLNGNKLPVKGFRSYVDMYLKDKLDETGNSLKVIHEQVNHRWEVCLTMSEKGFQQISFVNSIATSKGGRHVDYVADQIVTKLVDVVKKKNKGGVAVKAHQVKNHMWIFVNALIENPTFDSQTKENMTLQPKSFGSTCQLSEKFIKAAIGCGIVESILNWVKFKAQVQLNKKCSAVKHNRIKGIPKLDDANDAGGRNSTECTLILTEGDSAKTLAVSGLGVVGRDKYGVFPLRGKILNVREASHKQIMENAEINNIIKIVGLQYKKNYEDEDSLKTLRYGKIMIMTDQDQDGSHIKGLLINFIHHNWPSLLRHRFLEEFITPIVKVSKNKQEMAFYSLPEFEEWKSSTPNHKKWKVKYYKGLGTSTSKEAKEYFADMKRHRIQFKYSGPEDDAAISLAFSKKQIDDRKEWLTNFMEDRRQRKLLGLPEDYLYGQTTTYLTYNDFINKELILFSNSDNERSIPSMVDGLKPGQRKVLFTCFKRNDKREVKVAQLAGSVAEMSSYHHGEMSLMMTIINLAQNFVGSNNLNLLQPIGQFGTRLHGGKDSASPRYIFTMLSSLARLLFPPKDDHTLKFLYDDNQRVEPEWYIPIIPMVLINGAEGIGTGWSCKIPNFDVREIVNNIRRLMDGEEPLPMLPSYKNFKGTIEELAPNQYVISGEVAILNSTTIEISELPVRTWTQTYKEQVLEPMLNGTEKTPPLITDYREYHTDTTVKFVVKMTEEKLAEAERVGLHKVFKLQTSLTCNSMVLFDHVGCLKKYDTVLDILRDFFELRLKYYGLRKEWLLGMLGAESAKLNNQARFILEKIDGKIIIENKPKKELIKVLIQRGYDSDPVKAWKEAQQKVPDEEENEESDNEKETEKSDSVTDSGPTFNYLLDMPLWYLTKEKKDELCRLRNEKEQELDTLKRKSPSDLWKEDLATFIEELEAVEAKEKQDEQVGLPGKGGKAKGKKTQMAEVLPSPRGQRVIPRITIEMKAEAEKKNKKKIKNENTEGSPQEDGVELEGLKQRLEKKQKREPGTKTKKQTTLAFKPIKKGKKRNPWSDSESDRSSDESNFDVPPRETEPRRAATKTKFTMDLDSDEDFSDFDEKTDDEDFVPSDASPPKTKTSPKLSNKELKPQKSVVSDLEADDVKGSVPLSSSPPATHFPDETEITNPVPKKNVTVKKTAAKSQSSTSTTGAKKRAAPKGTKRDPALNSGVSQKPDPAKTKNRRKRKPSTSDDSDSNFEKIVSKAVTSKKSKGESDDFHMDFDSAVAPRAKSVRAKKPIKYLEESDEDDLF

O=C1/C(=C/c2ccccc2)CN(C(=O)Nc2ccc(Cl)cc2)C/C1=C\c1ccccc1 [Compound 25, 3,5-Di[(E)-benzylidene]-N-(4-chlorophenyl)-4-oxopiperidine-1-carboxamide]
IC50 [1]: 2.09 ± 0.26 µM | IC50 [2]: 1.03 ± 0.29 µM | melting point: 186 to 188 °C | IC50 [3]: 22.1 ± 2.06 µM | IC50 [4]: 2.51 ± 0.24 µM

CCNC(=O)N1C/C(=C\c2cccs2)C(=O)/C(=C/c2cccs2)C1 [Compound 50, (3E,5E)-N-Ethyl-4-oxo-3,5-bis(thiophen-2-ylmethylene)piperidine-1-carboxamide]
IC50 [1]: 21.7 ± 2.78 µM | IC50 [2]: 20.1 ± 2.44 µM | melting point: 197 to 199 °C | IC50 [3]: 47.4 ± 2.66 µM | IC50 [4]: 40.6 ± 2.88 µM

CCNC(=O)N1C/C(=C\c2ccc(Cl)cc2)C(=O)/C(=C/c2ccc(Cl)cc2)C1 [Compound 32, 3,5-Bis[(E)-4-chlorobenzylidene]-N-ethyl-4-oxopiperidine-1-carboxamide]
IC50 [1]: 2.35 ± 0.23 µM | IC50 [2]: 1.04 ± 0.11 µM | melting point: 211 to 213 °C | IC50 [3]: 12.1 ± 1.76 µM | IC50 [4]: 1.31 ± 0.09 µM

O=C1/C(=C/c2ccccc2)CN(C(=O)NCc2ccccc2)C/C1=C\c1ccccc1 [Compound 28, N-Benzyl-3,5-di[(E)-benzylidene]-4-oxopiperidine-1-carboxamide]
IC50 [1]: 2.58 ± 0.3 µM | IC50 [2]: 1.31 ± 0.22 µM | melting point: 163 to 165 °C | IC50 [3]: 12 ± 1.76 µM | IC50 [4]: 2.58 ± 0.27 µM

CCNC(=O)N1C/C(=C\c2ccc(OC)cc2)C(=O)/C(=C/c2ccc(OC)cc2)C1 [Compound 46, N-Ethyl-3,5-bis[(E)-4-methoxybenzylidene]-4-oxopiperidine-1-carboxamide]
IC50 [1]: 5.73 ± 0.33 µM | IC50 [2]: 1.5 ± 0.14 µM | melting point: 173 to 175 °C | IC50 [3]: 47.7 ± 3.05 µM | IC50 [5]: 56.2 ± 2.18 µM | IC50 [4]: 8.83 ± 1.26 µM

O=C1/C(=C/c2ccc(F)cc2)CN(C(=O)NCc2ccccc2)C/C1=C\c1ccc(F)cc1 [Compound 38, N-Benzyl-3,5-bis[(E)-4-fluorobenzylidene]-4-oxopiperidine-1-carboxamide]
IC50 [1]: 2.16 ± 0.15 µM | IC50 [2]: 0.56 ± 0.03 µM | melting point: 178 to 180 °C | IC50 [3]: 10.9 ± 1.42 µM | IC50 [5]: 35 ± 2.08 µM | IC50 [4]: 1.33 ± 0.17 µM

O=C1/C(=C/c2cccs2)CN(C(=O)NCc2ccccc2)C/C1=C\c1cccs1 [Compound 51, (3E,5E)-N-Benzyl-4-oxo-3,5-bis(thiophen-2-ylmethylene)piperidine-1-carboxamide]
IC50 [1]: > 50 µM | IC50 [2]: > 50 µM | IC50 [3]: > 50 µM | IC50 [4]: > 50 µM

Cc1ccc(/C=C2\CN(C(=O)Nc3ccccc3)C/C(=C\c3ccc(C)cc3)C2=O)cc1 [Compound 39, 3,5-Bis[(E)-4-methylbenzylidene]-4-oxo-N-phenylpiperidine-1-carboxamide]
IC50 [1]: 3.96 ± 0.29 µM | IC50 [2]: 1.44 ± 0.17 µM | melting point: 221 to 223 °C | IC50 [3]: > 50 µM | IC50 [5]: 41.3 ± 1.6 µM | IC50 [4]: 2.57 ± 0.15 µM

O=C1/C(=C/c2ccc(F)cc2)CN(C(=O)Nc2ccc(Cl)cc2)C/C1=C\c1ccc(F)cc1 [Compound 35, N-(4-Chlorophenyl)-3,5-bis[(E)-4-fluorobenzylidene]-4-oxopiperidine-1-carboxamide]
IC50 [1]: 1.36 ± 0.17 µM | IC50 [2]: 0.56 ± 0.06 µM | melting point: 192 to 194 °C | IC50 [3]: 8.26 ± 2.33 µM | IC50 [5]: 26.4 ± 1.61 µM | IC50 [4]: 1.2 ± 0.14 µM

Cc1ccc(/C=C2\CN(C(=O)NCc3ccccc3)C/C(=C\c3ccc(C)cc3)C2=O)cc1 [Compound 42, N-Benzyl-3,5-bis[(E)-4-methylbenzylidene]-4-oxopiperidine-1-carboxamide]
IC50 [1]: 4.9 ± 0.26 µM | IC50 [2]: 23 ± 1.82 µM | melting point: 166 to 168 °C | IC50 [3]: 47 ± 2.17 µM | IC50 [5]: 31.5 ± 1.22 µM | IC50 [4]: 8.75 ± 0.4 µM

COc1ccc(/C=C\c2cc(OC)c(OC)c(OC)c2)cc1O [Combretastatin A-4, reference compound]
IC50 [5]: 22 ± 0.85 µM

COc1ccc(NC(=O)N2C/C(=C\c3ccc(Cl)cc3)C(=O)/C(=C/c3ccc(Cl)cc3)C2)cc1 [Compound 31, 3,5-Bis[(E)-4-chlorobenzylidene]-N-(4-methoxyphenyl)-4-oxopiperidine-1-carboxamide]
IC50 [1]: 1.44 ± 0.19 µM | IC50 [2]: 1.03 ± 0.13 µM | melting point: 210 to 212 °C | IC50 [3]: 7.5 ± 1.75 µM | IC50 [4]: 1.24 ± 0.14 µM

CCNC(=O)N1C/C(=C\c2ccc(F)cc2)C(=O)/C(=C/c2ccc(F)cc2)C1 [Compound 37, N-Ethyl-3,5-bis[(E)-4-fluorobenzylidene]-4-oxopiperidine-1-carboxamide]
IC50 [1]: 2.32 ± 0.3 µM | IC50 [2]: 0.57 ± 0.07 µM | melting point: 180 to 182 °C | IC50 [3]: 9.78 ± 1.53 µM | IC50 [5]: 27.2 ± 1.72 µM | IC50 [4]: 1.18 ± 0.11 µM

O=C1/C(=C/c2ccccc2)CN(C(=O)Nc2ccccc2)C/C1=C\c1ccccc1 [Compound 24, 3,5-Di[(E)-benzylidene]-4-oxo-N-phenylpiperidine-1-carboxamide]
IC50 [1]: 1.83 ± 0.14 µM | IC50 [2]: 1.08 ± 0.18 µM | melting point: 179 to 181 °C | IC50 [3]: 16.6 ± 1.57 µM | IC50 [4]: 2.49 ± 0.31 µM

COc1ccc(NC(=O)N2C/C(=C\c3ccccc3)C(=O)/C(=C/c3ccccc3)C2)cc1 [Compound 26, 3,5-Di[(E)-benzylidene]-N-(4-methoxyphenyl)-4-oxopiperidine-1-carboxamide]
IC50 [1]: 2.48 ± 0.31 µM | IC50 [2]: 1.43 ± 0.2 µM | melting point: 184 to 186 °C | IC50 [3]: 17.7 ± 1.98 µM | IC50 [4]: 2.83 ± 0.36 µM

COc1ccc(/C=C2\CN(C(=O)NCc3ccccc3)C/C(=C\c3ccc(OC)cc3)C2=O)cc1 [Compound 47, N-Benzyl-3,5-bis[(E)-4-methoxybenzylidene]-4-oxopiperidine-1-carboxamide]
IC50 [1]: 4.89 ± 0.25 µM | IC50 [2]: 1.29 ± 0.19 µM | melting point: 177 to 179 °C | IC50 [3]: > 50 µM | IC50 [5]: 33 ± 1.28 µM | IC50 [4]: 7.98 ± 1.34 µM

COc1cc(/C=C/C(=O)CC(=O)/C=C/c2ccc(O)c(OC)c2)ccc1O [Curcumin]
IC50 [1]: 16 ± 2.04 µM | IC50 [2]: 38.2 ± 2.36 µM

O=C1/C(=C/c2ccc(Cl)cc2)CN(C(=O)NCc2ccccc2)C/C1=C\c1ccc(Cl)cc1 [Compound 33, N-Benzyl-3,5-bis[(E)-4-chlorobenzylidene]-4-oxopiperidine-1-carboxamide]
IC50 [1]: 2.14 ± 0.26 µM | IC50 [2]: 1.13 ± 0.19 µM | melting point: 199 to 201 °C | IC50 [3]: 11.4 ± 1.68 µM | IC50 [4]: 1.45 ± 0.12 µM

COc1ccc(/C=C2\CN(C(=O)Nc3ccccc3)C/C(=C\c3ccc(OC)cc3)C2=O)cc1 [Compound 43, 3,5-Bis[(E)-4-methoxybenzylidene]-4-oxo-N-phenylpiperidine-1-carboxamide]
IC50 [1]: 3.96 ± 0.23 µM | IC50 [2]: 1.23 ± 0.15 µM | melting point: 190 to 192 °C | IC50 [3]: > 50 µM | IC50 [5]: 28.3 ± 1.09 µM | IC50 [4]: 2.72 ± 0.2 µM

O=C1/C(=C/c2cccs2)CN(C(=O)Nc2ccccc2)C/C1=C\c1cccs1 [Compound 48, (3E,5E)-4-Oxo-N-phenyl-3,5-bis(thiophen-2-ylmethylene)piperidine-1-carboxamide]
IC50 [1]: 33.7 ± 1.38 µM | IC50 [2]: > 50 µM | IC50 [3]: > 50 µM | IC50 [4]: > 50 µM

COc1ccc(NC(=O)N2C/C(=C\c3cccs3)C(=O)/C(=C/c3cccs3)C2)cc1 [Compound 49, (3E,5E)-N-(4-Methoxyphenyl)-4-oxo-3,5-bis(thiophen-2-ylmethylene)piperidine-1-carboxamide]
IC50 [1]: 24.7 ± 1.99 µM | IC50 [2]: 40.8 ± 2.61 µM | melting point: 194 to 196 °C | IC50 [3]: > 50 µM | IC50 [4]: > 50 µM

O=C1/C(=C/c2ccc(F)cc2)CN(C(=O)Nc2ccccc2)C/C1=C\c1ccc(F)cc1 [Compound 34, 3,5-Bis[(E)-4-fluorobenzylidene]-4-oxo-N-phenylpiperidine-1-carboxamide]
IC50 [1]: 2.34 ± 0.29 µM | IC50 [2]: 0.56 ± 0.04 µM | melting point: 191 to 193 °C | IC50 [3]: 17.5 ± 2.16 µM | IC50 [5]: 30.7 ± 1.32 µM | IC50 [4]: 1.27 ± 0.09 µM

CCNC(=O)N1C/C(=C\c2ccc(C)cc2)C(=O)/C(=C/c2ccc(C)cc2)C1 [Compound 41, N-Ethyl-3,5-bis[(E)-4-methylbenzylidene]-4-oxopiperidine-1-carboxamide]
IC50 [1]: 4.58 ± 0.28 µM | IC50 [2]: 2.26 ± 0.23 µM | melting point: 174 to 176 °C | IC50 [3]: 18.9 ± 1.33 µM | IC50 [5]: 50.2 ± 1.94 µM | IC50 [4]: 2.64 ± 0.27 µM

From article PMC9073595, “Synthesis, human topoisomerase IIα inhibitory properties and molecular modeling studies of anti-proliferative curcumin mimics” (RSC Advances, 2019)
